ChEMBL document CHEMBL3596195, “Novel cajaninstilbene acid derivatives as antibacterial agents” (Eur J Med Chem, 2015)
Values after ≈ are worked out from the molar mass of the structure shown.

How the values were obtained:
Assay type in all cases: functional
Staphylococcus aureus [1] = test: Antibacterial activity against methicillin-resistant Staphylococcus aureus ATCC425055 assessed as bacterial growth inhibition after 24 hrs by broth dilution method; conditions: ATCC425055, 24 h
Staphylococcus aureus [2] = test: Antibacterial activity against methicillin-resistant Staphylococcus aureus ATCC52056 assessed as bacterial growth inhibition after 24 hrs by broth dilution method; conditions: ATCC52056, 24 h
Staphylococcus aureus [3] = test: Antibacterial activity against methicillin-resistant Staphylococcus aureus ATCC523512 assessed as bacterial growth inhibition after 24 hrs by broth dilution method; conditions: ATCC523512, 24 h
Staphylococcus aureus [4] = test: Antibacterial activity against methicillin-resistant Staphylococcus aureus ATCC62202 assessed as bacterial growth inhibition after 24 hrs by broth dilution method; conditions: ATCC62202, 24 h
Staphylococcus aureus [5] = test: Antibacterial activity against methicillin-resistant Staphylococcus aureus ATCC510019 assessed as bacterial growth inhibition after 24 hrs by broth dilution method; conditions: ATCC510019, 24 h
Staphylococcus aureus [6] = test: Antibacterial activity against methicillin-resistant Staphylococcus aureus ATCC51033 assessed as bacterial growth inhibition after 24 hrs by broth dilution method; conditions: ATCC51033, 24 h
Staphylococcus aureus [7] = test: Antibacterial activity against methicillin-resistant Staphylococcus aureus ATCC515992 assessed as bacterial growth inhibition after 24 hrs by broth dilution method; conditions: ATCC515992, 24 h
Staphylococcus aureus [8] = test: Antibacterial activity against methicillin-resistant Staphylococcus aureus ATCC513045 assessed as bacterial growth inhibition after 24 hrs by broth dilution method; conditions: ATCC513045, 24 h
Pseudomonas aeruginosa = test: Antibacterial activity against Pseudomonas aeruginosa ATCC2785 assessed as bacterial growth inhibition after 24 hrs by broth dilution method; conditions: ATCC2785, 24 h
Proteus vulgaris = test: Antibacterial activity against Proteus vulgaris ATCC49101 assessed as bacterial growth inhibition after 24 hrs by broth dilution method; conditions: ATCC49101, 24 h
Bacillus subtilis = test: Antibacterial activity against Bacillus subtilis ATCC6633 assessed as bacterial growth inhibition after 24 hrs by broth dilution method; conditions: ATCC6633, 24 h
[9] = system: Staphylococcus epidermidis; test: Antibacterial activity against Staphylococcus epidermidis ATCC12228 assessed as bacterial growth inhibition after 24 hrs by broth dilution method; conditions: ATCC12228, 24 h
Staphylococcus aureus [10] = test: Antibacterial activity against methicillin-resistant Staphylococcus aureus ATCC43300 assessed as bacterial growth inhibition after 24 hrs by broth dilution method; conditions: ATCC43300, 24 h
Staphylococcus aureus [11] = test: Antibacterial activity against Staphylococcus aureus ATCC25923 assessed as bacterial growth inhibition after 24 hrs by broth dilution method; conditions: ATCC25923, 24 h
Escherichia coli = test: Antibacterial activity against Escherichia coli ATCC25922 assessed as bacterial growth inhibition after 24 hrs by broth dilution method; conditions: ATCC25922, 24 h

Row | Compound | MIC (Staphylococcus aureus [1]) [µg/mL] | MIC (Staphylococcus aureus [2]) [µg/mL] | MIC (Staphylococcus aureus [3]) [µg/mL] | MIC (Staphylococcus aureus [4]) [µg/mL] | MIC (Staphylococcus aureus [5]) [µg/mL] | MIC (Staphylococcus aureus [6]) [µg/mL] | MIC (Staphylococcus aureus [7]) [µg/mL] | MIC (Staphylococcus aureus [8]) [µg/mL] | MIC (Pseudomonas aeruginosa) [µg/mL] | MIC (Proteus vulgaris) [µg/mL] | MIC (Bacillus subtilis) [µg/mL] | MIC [9] [µg/mL] | MIC (Staphylococcus aureus [10]) [µg/mL] | MIC (Staphylococcus aureus [11]) [µg/mL] | MIC (Escherichia coli) [µg/mL]
1 | COC(=O)c1c(O)cc(OC)cc1/C=C/c1ccccc1F | > 128 | > 128 | > 128 | > 128 | > 128 | > 128 | > 128 | > 128 | 128 (≈ 423 µM) | > 128 | 128 (≈ 423 µM) | 128 (≈ 423 µM) | > 128 | > 128 | > 128
2 | COC(=O)c1c(O)cc(OC)cc1/C=C/c1cccc(F)c1 | > 128 | > 128 | > 128 | > 128 | 128 (≈ 423 µM) | > 128 | > 128 | > 128 | 128 (≈ 423 µM) | > 128 | 128 (≈ 423 µM) | 128 (≈ 423 µM) | > 128 | > 128 | 128 (≈ 423 µM)
3 | COC(=O)c1c(O)cc(OC)cc1/C=C/c1ccc(F)cc1 | > 128 | > 128 | > 128 | > 128 | > 128 | > 128 | 128 (≈ 423 µM) | > 128 | > 128 | > 128 | > 128 | > 128 | > 128 | > 128 | > 128
4 | COC(=O)c1c(O)cc(OC)cc1/C=C/c1ccc(Cl)cc1 | > 128 | > 128 | > 128 | 128 (≈ 402 µM) | > 128 | > 128 | > 128 | > 128 | > 128 | > 128 | 128 (≈ 402 µM) | > 128 | > 128 | > 128 | > 128
5 | COC(=O)c1c(O)cc(OC)cc1/C=C/c1ccc(OC)cc1 | > 128 | > 128 | > 128 | > 128 | 128 (≈ 407 µM) | > 128 | > 128 | > 128 | 128 (≈ 407 µM) | > 128 | > 128 | > 128 | > 128 | > 128 | > 128
6 | COC(=O)c1c(O)cc(OC)cc1/C=C/c1ccc(C)cc1 | 128 (≈ 429 µM) | > 128 | > 128 | > 128 | > 128 | 128 (≈ 429 µM) | > 128 | > 128 | > 128 | > 128 | > 128 | > 128 | > 128 | > 128 | > 128
7 | COC(=O)c1c(O)cc(OC)cc1/C=C/c1cc(OC)c(OC)c(OC)c1 | > 128 | > 128 | > 128 | > 128 | > 128 | 128 (≈ 342 µM) | 64 (≈ 171 µM) | > 128 | > 128 | > 128 | > 128 | > 128 | > 128 | > 128 | > 128
8 | COC(=O)c1c(O)cc(OC)cc1/C=C/c1cccc(C#N)c1 | > 128 | > 128 | > 128 | > 128 | > 128 | 128 (≈ 414 µM) | 64 (≈ 207 µM) | > 128 | > 128 | > 128 | > 128 | > 128 | > 128 | > 128 | > 128
9 | COC(=O)c1c(O)cc(OC)cc1/C=C/c1ccc(C(F)(F)F)cc1 | > 128 | > 128 | > 128 | > 128 | > 128 | > 128 | > 128 | 128 (≈ 363 µM) | > 128 | > 128 | > 128 | 128 (≈ 363 µM) | > 128 | > 128 | > 128
10 | COC(=O)c1c(O)cc(OC)cc1/C=C/c1ccc(F)cc1F | 128 (≈ 400 µM) | > 128 | > 128 | > 128 | > 128 | 128 (≈ 400 µM) | > 128 | > 128 | > 128 | > 128 | > 128 | > 128 | 128 (≈ 400 µM) | > 128 | > 128
11 | COc1cc(O)c(C(=O)O)c(/C=C/c2ccccc2)c1 | > 128 | 128 (≈ 474 µM) | > 128 | 128 (≈ 474 µM) | > 128 | > 128 | > 128 | > 128 | > 128 | > 128 | 64 (≈ 237 µM) | > 128 | > 128 | > 128 | > 128
12 | COc1cc(O)c(C(=O)O)c(/C=C/c2cccc(F)c2)c1 | > 128 | > 128 | 128 (≈ 444 µM) | > 128 | > 128 | > 128 | > 128 | > 128 | > 128 | > 128 | > 128 | 64 (≈ 222 µM) | > 128 | > 128 | > 128
13 | COc1ccc(/C=C/c2cc(OC)cc(O)c2C(=O)O)cc1 | > 128 | > 128 | > 128 | > 128 | > 128 | > 128 | > 128 | > 128 | > 128 | > 128 | 64 (≈ 213 µM) | > 128 | > 128 | > 128 | > 128
14 | COc1cc(/C=C/c2ccccc2)c(C(=O)O)c(O)c1CC=C(C)C | 16 (≈ 47.3 µM) | 16 (≈ 47.3 µM) | 32 (≈ 94.6 µM) | 8 (≈ 23.6 µM) | 32 (≈ 94.6 µM) | 16 (≈ 47.3 µM) | 32 (≈ 94.6 µM) | 16 (≈ 47.3 µM) | > 64 | > 64 | 32 (≈ 94.6 µM) | 16 (≈ 47.3 µM) | 16 (≈ 47.3 µM) | 16 (≈ 47.3 µM) | > 128
15 | CCn1cc(C(=O)O)c(=O)c2cc(F)c(N3CCNCC3)cc21 [NORFLOXACIN] | 4 (≈ 12.5 µM) | 8 (≈ 25.1 µM) | 8 (≈ 25.1 µM) | 8 (≈ 25.1 µM) | 8 (≈ 25.1 µM) | 4 (≈ 12.5 µM) | 16 (≈ 50.1 µM) | 4 (≈ 12.5 µM) | 16 (≈ 50.1 µM) | 16 (≈ 50.1 µM) | 2 (≈ 6.26 µM) | 2 (≈ 6.26 µM) | 4 (≈ 12.5 µM) | 2 (≈ 6.26 µM) | 32 (≈ 100 µM)
16 | CC1(C)S[C@@H]2[C@H](NC(=O)Cc3ccccc3)C(=O)N2[C@H]1C(=O)O [PENICILLIN G] | 32 (≈ 95.7 µM) | 64 (≈ 191 µM) | 32 (≈ 95.7 µM) | 32 (≈ 95.7 µM) | 32 (≈ 95.7 µM) | 32 (≈ 95.7 µM) | 32 (≈ 95.7 µM) | 32 (≈ 95.7 µM) | 16 (≈ 47.8 µM) | > 16 | 2 (≈ 5.98 µM) | 2 (≈ 5.98 µM) | 32 (≈ 95.7 µM) | 2 (≈ 5.98 µM) | 64 (≈ 191 µM)
